# Laboratory results published in the NIST ThermoML archive (doi:10.1021/acs.jced.5b00820).
# “And” between values parts separate entries of the source, which are not always exact repeats. Equal entries are not always repeated. Numbers after ± are expanded uncertainties.
# What was measured:
# [1] = 102.2 kPa, Liquid, Vibrating tube method
# [2] = refractive index (Na D-line) (dimensionless); settings: 102.2 kPa, Liquid, Standard Abbe refractometry
# [3] = xn = mol fraction of the nth substance listed; settings: 102.2 kPa, Liquid, Vibrating tube method, x2 = 0
# [4] = refractive index (Na D-line) (dimensionless); xn = mol fraction of the nth substance listed; settings: 102.2 kPa, Liquid, Standard Abbe refractometry, x2 = 0
smiles,measurement,setting,value
C[Si]1(CCC(F)(F)F)O[Si](C)(CCC(F)(F)F)O[Si](C)(CCC(F)(F)F)O1 (stereo not given),mass density,[1]; 308.15 K,1236.82 ± 0.23 kg/m3
same,mass density,[1]; 313.15 K,1230.2 ± 0.23 kg/m3
same,mass density,[1]; 318.15 K,1223.61 ± 0.23 kg/m3
same,mass density,[1]; 323.15 K,1217.06 ± 0.23 kg/m3
same,mass density,[1]; 328.15 K,1210.43 ± 0.23 kg/m3
same,refractive index,[2]; 308.15 K,1.36015 ± 0.00035
same,refractive index,[2]; 313.15 K,1.35814 ± 0.00035
same,refractive index,[2]; 318.15 K,1.35614 ± 0.00035
same,refractive index,[2]; 323.15 K,1.35413 ± 0.00035
same,refractive index,[2]; 328.15 K,1.35215 ± 0.00035
C[Si]1(CCC(F)(F)F)O[Si](C)(CCC(F)(F)F)O[Si](C)(CCC(F)(F)F)O1 (stereo not given) + C[Si](C)(O[Si](C)(C)c1ccccc1)c1ccccc1,mass density,[3]; 308.15 K,1236.82 ± 0.23 kg/m3
same,mass density,[3]; 313.15 K,1230.2 ± 0.23 kg/m3
same,mass density,[3]; 318.15 K,1223.61 ± 0.23 kg/m3
same,mass density,[3]; 323.15 K,1217.06 ± 0.23 kg/m3
same,mass density,[3]; 328.15 K,1210.43 ± 0.23 kg/m3
same,refractive index,[4]; 308.15 K,1.36015 ± 0.00035
same,refractive index,[4]; 313.15 K,1.35814 ± 0.00035
same,refractive index,[4]; 318.15 K,1.35614 ± 0.00035
same,refractive index,[4]; 323.15 K,1.35413 ± 0.00035
same,refractive index,[4]; 328.15 K,1.35215 ± 0.00035
"C=C[Si](C)(C)O[Si](C)(C)C=C [1,3-diethenyl-1,1,3,3-tetramethyldisiloxane]",mass density,[1]; 308.15 K,797.99 ± 0.23 kg/m3
same,mass density,[1]; 313.15 K,793.04 ± 0.23 kg/m3
same,mass density,[1]; 318.15 K,788.05 ± 0.24 kg/m3
same,mass density,[1]; 323.15 K,783.06 ± 0.24 kg/m3
same,mass density,[1]; 328.15 K,778.04 ± 0.24 kg/m3
same,refractive index,[2]; 308.15 K,1.40445 ± 0.00036
same,refractive index,[2]; 313.15 K,1.40178 ± 0.00036
same,refractive index,[2]; 318.15 K,1.39912 ± 0.00036
same,refractive index,[2]; 323.15 K,1.39644 ± 0.00036
same,refractive index,[2]; 328.15 K,1.39378 ± 0.00036
"C=C[Si](C)(C)O[Si](C)(C)C=C [1,3-diethenyl-1,1,3,3-tetramethyldisiloxane] + C[Si](C)(O[Si](C)(C)c1ccccc1)c1ccccc1",mass density,[3]; 308.15 K,797.99 ± 0.23 kg/m3
same,mass density,[3]; 313.15 K,793.04 ± 0.23 kg/m3
same,mass density,[3]; 318.15 K,788.05 ± 0.24 kg/m3
same,mass density,[3]; 323.15 K,783.06 ± 0.24 kg/m3
same,mass density,[3]; 328.15 K,778.04 ± 0.24 kg/m3
same,refractive index,[4]; 308.15 K,1.40445 ± 0.00036
same,refractive index,[4]; 313.15 K,1.40178 ± 0.00036
same,refractive index,[4]; 318.15 K,1.39912 ± 0.00036
same,refractive index,[4]; 323.15 K,1.39644 ± 0.00036
same,refractive index,[4]; 328.15 K,1.39378 ± 0.00036
"C[Si](C)(O[Si](C)(C)c1ccccc1)c1ccccc1 [1,3-diphenyltetramethyldisiloxane]",mass density,[1]; 308.15 K,968.05 ± 0.21 kg/m3 and 967.99 ± 0.21 kg/m3 and 967.9 ± 0.21 kg/m3
same,mass density,[1]; 313.15 K,963.92 ± 0.21 kg/m3 [middle of 4 runs]
same,mass density,[1]; 318.15 K,959.8 ± 0.21 kg/m3 [middle of 4 runs]
same,mass density,[1]; 323.15 K,955.69 ± 0.21 kg/m3 [middle of 4 runs]
same,mass density,[1]; 328.15 K,951.57 ± 0.21 kg/m3 and 951.58 ± 0.21 kg/m3 and 951.65 ± 0.21 kg/m3
same,refractive index,[2]; 308.15 K,1.51064 ± 0.00035 [middle of 4 runs]
same,refractive index,[2]; 313.15 K,1.50832 ± 0.00035 [middle of 4 runs]
same,refractive index,[2]; 318.15 K,1.50605 ± 0.00035 [middle of 4 runs]
same,refractive index,[2]; 323.15 K,1.50377 ± 0.00035 [middle of 4 runs]
same,refractive index,[2]; 328.15 K,1.50144 ± 0.00035 [middle of 4 runs]
"C=C[Si]1(C)O[Si](C)(C=C)O[Si](C)(C=C)O[Si](C)(C=C)O1 (stereo not given) [2,4,6,8-tetramethyl-2,4,6,8-tetravinylcycloterasiloxane]",mass density,[1]; 308.15 K,972.64 ± 0.21 kg/m3
same,mass density,[1]; 313.15 K,967.49 ± 0.21 kg/m3
same,mass density,[1]; 318.15 K,962.36 ± 0.21 kg/m3
same,mass density,[1]; 323.15 K,957.2 ± 0.21 kg/m3
same,mass density,[1]; 328.15 K,952.03 ± 0.21 kg/m3
same,refractive index,[2]; 308.15 K,1.42751 ± 0.00035
same,refractive index,[2]; 313.15 K,1.42514 ± 0.00035
same,refractive index,[2]; 318.15 K,1.42275 ± 0.00035
same,refractive index,[2]; 323.15 K,1.4204 ± 0.0004
same,refractive index,[2]; 328.15 K,1.41802 ± 0.00035
"C=C[Si]1(C)O[Si](C)(C=C)O[Si](C)(C=C)O[Si](C)(C=C)O1 (stereo not given) [2,4,6,8-tetramethyl-2,4,6,8-tetravinylcycloterasiloxane] + C[Si](C)(O[Si](C)(C)c1ccccc1)c1ccccc1",mass density,[3]; 308.15 K,972.64 ± 0.21 kg/m3
same,mass density,[3]; 313.15 K,967.49 ± 0.21 kg/m3
same,mass density,[3]; 318.15 K,962.36 ± 0.21 kg/m3
same,mass density,[3]; 323.15 K,957.2 ± 0.21 kg/m3
same,mass density,[3]; 328.15 K,952.03 ± 0.21 kg/m3
same,refractive index,[4]; 308.15 K,1.42751 ± 0.00035
same,refractive index,[4]; 313.15 K,1.42514 ± 0.00035
same,refractive index,[4]; 318.15 K,1.42275 ± 0.00035
same,refractive index,[4]; 323.15 K,1.4204 ± 0.0004
same,refractive index,[4]; 328.15 K,1.41802 ± 0.00035
C[Si]1(C)O[Si](C)(C)O[Si](C)(C)O[Si](C)(C)O1 [octamethylcyclotetrasiloxane],mass density,[1]; 308.15 K,938.88 ± 0.22 kg/m3
same,mass density,[1]; 313.15 K,933.06 ± 0.22 kg/m3
same,mass density,[1]; 318.15 K,927.34 ± 0.22 kg/m3
same,mass density,[1]; 323.15 K,921.59 ± 0.22 kg/m3
same,mass density,[1]; 328.15 K,915.8 ± 0.22 kg/m3
same,refractive index,[2]; 308.15 K,1.38924 ± 0.00036
same,refractive index,[2]; 313.15 K,1.38671 ± 0.00036
same,refractive index,[2]; 318.15 K,1.38419 ± 0.00036
same,refractive index,[2]; 323.15 K,1.38168 ± 0.00036
same,refractive index,[2]; 328.15 K,1.37916 ± 0.00036
C[Si]1(C)O[Si](C)(C)O[Si](C)(C)O[Si](C)(C)O1 [octamethylcyclotetrasiloxane] + C[Si](C)(O[Si](C)(C)c1ccccc1)c1ccccc1,mass density,[3]; 308.15 K,938.88 ± 0.22 kg/m3
same,mass density,[3]; 313.15 K,933.06 ± 0.22 kg/m3
same,mass density,[3]; 318.15 K,927.34 ± 0.22 kg/m3
same,mass density,[3]; 323.15 K,921.59 ± 0.22 kg/m3
same,mass density,[3]; 328.15 K,915.8 ± 0.22 kg/m3
same,refractive index,[4]; 308.15 K,1.38924 ± 0.00036
same,refractive index,[4]; 313.15 K,1.38671 ± 0.00036
same,refractive index,[4]; 318.15 K,1.38419 ± 0.00036
same,refractive index,[4]; 323.15 K,1.38168 ± 0.00036
same,refractive index,[4]; 328.15 K,1.37916 ± 0.00036
